Two molecules from US20060058359A1, “Compounds useful as pesticides” (priority 2002, published 2006) can be followed below.

Series [1] relates to Cotton Aphid (Aphis gossypii). Nature of the series: Testing with Cotton Aphid (squash cotyledon foliar spray assay). Format: in vivo. Particulars: foliar spray on squash, 3 days after application. The text has this:
Yellow crookneck squash, Cucurbita pepo, is planted in 3 inch pots and placed in a greenhouse. Plants are watered regularly for 5 to 7 days until they reach the first emergent leaf stage. Plants are then trimmed to a single cotyledon. The squash assay consists of four squash plants per treatment with each plant cotyledon considered a replicate. Four additional plants are used as a control treatment (receiving solvent blank application only). Twenty-four hours prior to application, a leaf section of heavily infested squash plant from the aphid colony is placed onto each cotyledon, allowing a mixed population of A. gossypii nymphs and adults to migrate and infest the test plants. The pre-infested squash cotyledons are sprayed on both the upper and lower surfaces using an airbrush sprayer set at 2 psi. Formulation is an aqueous solution containing 5% solvent and 0.025% Tween 20 surfactant to yield concentrations of 50 ppm and 5 ppm of the test compound. Plants are sprayed to runoff. Tests are held in ambient laboratory temperatures for three days. At 3 days after application (DM) the number of live aphids are counted with the aid of a dissecting microscope. The number of live aphids in the treatment is compared to the number of live aphids in the solvent blank-treated controls and percent mortality is calculated.

The subject of series [2] is Cat Flea (Cntenocephalides felis). Kind of series: Testing with Cat Flea (treated media assay). Format: in vivo. Particulars: 0.1 μg/g rate in media, infested with eggs, adults counted after five weeks vs acetone only. How it is done:
Media is prepared by mixing 1 part dried bovine blood, 4 parts ground dog food pellets, and 95 parts clean sand. Compounds are dissolved in acetone and further diluted in acetone to yield the required range of concentrations. The acetone solutions are applied to measured amounts of media in small dishes. Final concentrations are expressed as micrograms of compound per gram of media. After the acetone has dried, the treated media is dispensed into small glass vials and infested with 5 to 10 cat flea (Cntenocephalides felis) eggs. The vials are loosely capped and held under controlled conditions for five weeks. Activity is assessed based on the average number of adult cat fleas present in the treated vials compared to the average number of adult cat fleas in the media treated with acetone only.

With `C/N=C(/C(=CN(C)C)[N+](=O)[O-])N(C)Cc1ccc(Cl)nc1` [Compound One], the percent mortality in series [1] (5 parts per million) and in series [1] (50 parts per million) was 100% each time. The “control of cat fleas” value in series [2] is listed as 90%.

For the molecule `C/N=C(/C(=CNc1ccccc1)[N+](=O)[O-])N(C)Cc1ccc(Cl)nc1` [Compound Three], the percent mortality in series [1] (5 parts per million) and in series [1] (50 parts per million) was 100% in each case. In addition, in series [2], the “control of cat fleas” value was 38%.
